Source: ChEMBL document CHEMBL1201862, “PubChem BioAssay data set” (2004)
Calls of active or inactive are those of the source.

Columns and labels:
[1] = target: T1, High affinity choline transporter 1 (Homo sapiens, UniProt Q9GZV3); test: human choline transporter blockers, potency – cell-based, 5-point CRC, membrane potential dye, dose response (AID 504840); assay type: functional
T1 sequence (Q9GZV3 whole entry): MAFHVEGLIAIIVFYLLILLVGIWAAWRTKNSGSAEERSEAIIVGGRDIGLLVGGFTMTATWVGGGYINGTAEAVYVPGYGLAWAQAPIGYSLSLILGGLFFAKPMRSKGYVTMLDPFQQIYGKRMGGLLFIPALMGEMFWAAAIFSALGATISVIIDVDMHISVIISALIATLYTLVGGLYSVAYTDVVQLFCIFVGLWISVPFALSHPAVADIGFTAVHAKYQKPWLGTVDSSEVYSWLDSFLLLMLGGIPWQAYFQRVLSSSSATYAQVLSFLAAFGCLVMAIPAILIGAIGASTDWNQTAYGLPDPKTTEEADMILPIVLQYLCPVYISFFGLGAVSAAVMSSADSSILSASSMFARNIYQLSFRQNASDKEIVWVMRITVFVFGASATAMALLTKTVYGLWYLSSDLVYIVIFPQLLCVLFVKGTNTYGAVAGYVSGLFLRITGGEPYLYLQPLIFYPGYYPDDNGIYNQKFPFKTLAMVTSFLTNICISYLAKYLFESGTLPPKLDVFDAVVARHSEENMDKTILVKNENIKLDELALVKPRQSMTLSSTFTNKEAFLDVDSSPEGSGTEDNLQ

[2] = target: T1, High affinity choline transporter 1; test: human choline transporter blockers, potency – cell-based, 10-point CRC, membrane potential dye, dose response (AID 588401); assay type: functional;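 also: membrane potential dye fluorescence of choline-evoked depolarization via CHT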
[3] = tested on: Vero; test: cells; assay type: functional; details: Chlorocebus sabaeus
[4] = target: T2, Calpain-2 catalytic subunit (Sus scrofa, UniProt P43367); test: m-calpain protease blockers, concentration series – biochemical, fluorogenic peptide substrate, dose response (AID 1420); assay type: functional
T2 sequence (P43367 whole entry): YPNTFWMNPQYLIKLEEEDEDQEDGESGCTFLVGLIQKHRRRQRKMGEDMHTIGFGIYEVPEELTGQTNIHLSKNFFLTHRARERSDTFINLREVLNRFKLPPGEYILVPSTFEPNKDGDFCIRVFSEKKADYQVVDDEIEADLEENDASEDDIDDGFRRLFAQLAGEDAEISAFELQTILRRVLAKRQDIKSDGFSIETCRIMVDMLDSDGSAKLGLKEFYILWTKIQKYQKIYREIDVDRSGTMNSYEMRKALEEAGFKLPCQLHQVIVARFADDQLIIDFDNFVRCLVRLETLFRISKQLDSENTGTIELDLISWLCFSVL

[5] = target: Voltage-dependent T-type calcium channel subunit alpha-1H (Homo sapiens, UniProt O95180); assay type: functional;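 also: channel activity triggered by adding a high calcium stimulation buffer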
[6] = viability of uninfected HEp-2 cells – cell-based, HTS, cytotoxicity control for RSV inhibitor project, dose response (AID 2410); assay type: functional; details: human respiratory syncytial virus
[7] = microbe, parasite or virus in culture; assay type: functional; details: Mycobacterium tuberculosis
[8] = target: Cytochrome P450 2C9 (Homo sapiens, UniProt P11712)
[9] = target: T3, Cytochrome P450 1A2 (Homo sapiens, UniProt P05177);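 also: PubChem cytochrome P450 panel assay, CYP1A2 panel member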
T3 sequence (P05177 whole entry): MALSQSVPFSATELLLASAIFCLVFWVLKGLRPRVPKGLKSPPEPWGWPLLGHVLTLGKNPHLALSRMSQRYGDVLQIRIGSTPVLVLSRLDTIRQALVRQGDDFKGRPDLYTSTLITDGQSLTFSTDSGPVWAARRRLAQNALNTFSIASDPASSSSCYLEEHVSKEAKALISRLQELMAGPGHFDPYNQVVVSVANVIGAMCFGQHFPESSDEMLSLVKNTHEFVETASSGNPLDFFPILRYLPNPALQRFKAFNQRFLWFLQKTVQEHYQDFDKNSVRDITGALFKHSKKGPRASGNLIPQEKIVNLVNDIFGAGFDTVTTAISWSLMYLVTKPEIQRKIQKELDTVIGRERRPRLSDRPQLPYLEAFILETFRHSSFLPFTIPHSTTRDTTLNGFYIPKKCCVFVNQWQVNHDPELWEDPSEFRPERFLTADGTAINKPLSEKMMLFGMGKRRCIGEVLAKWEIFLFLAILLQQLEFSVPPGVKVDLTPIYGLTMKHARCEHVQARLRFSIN

[10] = viability of PTEN-deleted HCT116 cells – cell-based, HCT116 PTEN knockout, dose response (AID 1047); assay type: functional;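 also: HCT116 colon tumor cells with PTEN knocked out; cells exposed to compound for 60 hours before readout; potency for loss of cell viability measured by luminescence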
[11] = viability of HCT116 lacking mutant beta-catenin – cell-based, human colon tumor, dose response (AID 1045); assay type: functional;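 also: HCT116 colon tumor cells with beta catenin knocked out; cells exposed to compound for 60 hours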
[12] = tested on: H9c2; test: cells; assay type: functional, cell-based; details: Rattus norvegicus, H9c2, Myocardium;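 also: confirmatory concentration-response retest of ultra-high-throughput screening hits for modulation of myocardial damage; cell death induced by hydrogen peroxide oxidative stress; compound pretreatment for 60 min then peroxide exposure for 2 h; potency is for protecting the cells against peroxide damage rather than for killing them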
[13] = luciferase reporter signal suppression in cells – H4 neuroglioma cells, luminescence, dose response (AID 1990); assay type: functional, cell-based
[14] = Luminescence Cell-Based Dose Response HTS to Identify Inhibitors of 5'UTR Stem-Loop Driven Prion Protein mRNA Translation in H4 Neuroglioblastoma Cells. [Related pubchem assays: 1827 (Project Summary), 1813 (Primary HTS)]; assay type: functional
[15] = alpha-synuclein stem-loop luciferase translation blockers – H4 neuroglioma cells, luminescence, confirmation (AID 1988); assay type: functional, cell-based
[16] = target: Cytochrome P450 2D6 (Homo sapiens, UniProt P10635);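 also: CYP2D6 member of a cytochrome P450 panel assay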
[17] = Luminescence Cell-Based Dose Response HTS to Identify Activators of Luciferase Translation or Activity in H4 […] Cells. [Related pubchem assays: 1829 (Project Summary), 1814 (Primary HTS)]; assay type: functional
[18] = tested on: H4; test: Luminescence Cell-Based Dose Response HTS to Identify Activators of 5'UTR Stem-Loop Driven Prion Protein mRNA Translation in H4 Neuroglioblastoma Cells. [Related pubchem assays: 1829 (Project Summary), 1814 (Primary HTS)]; assay type: functional; details: Homo sapiens
[19] = target: T4, Short transient receptor potential channel 4 (Mus musculus, UniProt Q9QUQ5); test: calcium entry via TRPC4 opening agents – cell-based, HEK293 TRPC4/mu-opioid, Fluo-4 calcium, dose response (AID 434937); assay type: functional
T4 sequence (Q9QUQ5 whole entry): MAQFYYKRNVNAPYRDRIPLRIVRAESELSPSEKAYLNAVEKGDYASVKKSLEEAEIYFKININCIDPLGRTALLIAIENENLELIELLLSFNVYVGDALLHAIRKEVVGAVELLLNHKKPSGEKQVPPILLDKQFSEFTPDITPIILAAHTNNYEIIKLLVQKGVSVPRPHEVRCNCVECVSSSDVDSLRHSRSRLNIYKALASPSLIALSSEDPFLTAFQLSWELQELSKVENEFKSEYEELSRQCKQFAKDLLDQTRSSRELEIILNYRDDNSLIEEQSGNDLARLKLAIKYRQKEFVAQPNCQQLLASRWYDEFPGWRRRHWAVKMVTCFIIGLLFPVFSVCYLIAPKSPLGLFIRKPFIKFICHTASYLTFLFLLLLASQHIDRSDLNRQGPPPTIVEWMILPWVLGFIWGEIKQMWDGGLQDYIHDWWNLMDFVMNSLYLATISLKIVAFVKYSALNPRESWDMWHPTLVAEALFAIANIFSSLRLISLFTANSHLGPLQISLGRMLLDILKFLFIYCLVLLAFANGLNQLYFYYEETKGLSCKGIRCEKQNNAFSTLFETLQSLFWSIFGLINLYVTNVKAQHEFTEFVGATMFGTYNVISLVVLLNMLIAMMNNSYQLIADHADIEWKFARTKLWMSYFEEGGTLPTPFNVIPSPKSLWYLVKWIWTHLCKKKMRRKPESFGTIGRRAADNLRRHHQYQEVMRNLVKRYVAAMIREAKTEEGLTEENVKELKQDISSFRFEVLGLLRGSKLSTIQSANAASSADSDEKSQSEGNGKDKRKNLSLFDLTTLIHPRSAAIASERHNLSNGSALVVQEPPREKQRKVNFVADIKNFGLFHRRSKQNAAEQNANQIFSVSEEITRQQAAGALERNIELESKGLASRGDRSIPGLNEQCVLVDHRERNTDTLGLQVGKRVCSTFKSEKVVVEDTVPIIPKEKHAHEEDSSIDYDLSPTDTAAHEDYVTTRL

[20] = Trypanosoma cruzi growth suppression in host cells – NIH3T3 host cells, beta-gal luminescence, confirmation (AID 2044); assay type: functional, cell-based;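 also: intracellular parasites grown in NIH/3T3 mouse fibroblasts as host cells; luminescent beta-galactosidase reporter signal from transgenic T. cruzi replicating inside host cells; inhibitors lower the luminescence signal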
[21] = NIH3T3 cell viability loss – ATP luminescence, mouse fibroblasts, counter-screen, dose response (AID 2010); assay type: functional, cell-based;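 also: cells exposed to compound for about 90 hours before reading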
[22] = target: Luciferin 4-monooxygenase (Photinus pyralis, UniProt P08659); test: inhibition of purified Photinus pyralis luciferase – biochemical, luminescence, dose response (AID 1891)
[23] = Luminescence Cell-Based Dose Confirmation HTS to Identify Inhibitors of Platelet Dense Granule Release. [Related pubchem assays: 1663 (Primary HTS), 1678 (Summary of Project)]; assay type: functional
[24] = target: Cytochrome P450 3A4 (Homo sapiens, UniProt P08684);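 also: CYP3A4 tested as one member of a cytochrome P450 panel screen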
Chain of Cytochrome P450 3A4 (P08684 whole entry): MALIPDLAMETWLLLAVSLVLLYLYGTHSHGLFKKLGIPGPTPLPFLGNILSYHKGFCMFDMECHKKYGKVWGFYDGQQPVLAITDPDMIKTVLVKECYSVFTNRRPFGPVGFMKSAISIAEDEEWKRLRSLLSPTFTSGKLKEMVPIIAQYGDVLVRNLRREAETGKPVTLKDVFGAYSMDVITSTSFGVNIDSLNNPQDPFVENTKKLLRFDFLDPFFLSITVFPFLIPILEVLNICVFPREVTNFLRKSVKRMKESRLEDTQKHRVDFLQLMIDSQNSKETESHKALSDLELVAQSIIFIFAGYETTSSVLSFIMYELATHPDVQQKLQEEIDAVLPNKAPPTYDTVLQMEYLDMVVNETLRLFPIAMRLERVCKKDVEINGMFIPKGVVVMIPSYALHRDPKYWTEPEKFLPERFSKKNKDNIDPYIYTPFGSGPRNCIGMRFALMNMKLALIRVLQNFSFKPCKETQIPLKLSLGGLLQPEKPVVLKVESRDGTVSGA

Chain of Voltage-dependent T-type calcium channel subunit alpha-1H (O95180 whole entry): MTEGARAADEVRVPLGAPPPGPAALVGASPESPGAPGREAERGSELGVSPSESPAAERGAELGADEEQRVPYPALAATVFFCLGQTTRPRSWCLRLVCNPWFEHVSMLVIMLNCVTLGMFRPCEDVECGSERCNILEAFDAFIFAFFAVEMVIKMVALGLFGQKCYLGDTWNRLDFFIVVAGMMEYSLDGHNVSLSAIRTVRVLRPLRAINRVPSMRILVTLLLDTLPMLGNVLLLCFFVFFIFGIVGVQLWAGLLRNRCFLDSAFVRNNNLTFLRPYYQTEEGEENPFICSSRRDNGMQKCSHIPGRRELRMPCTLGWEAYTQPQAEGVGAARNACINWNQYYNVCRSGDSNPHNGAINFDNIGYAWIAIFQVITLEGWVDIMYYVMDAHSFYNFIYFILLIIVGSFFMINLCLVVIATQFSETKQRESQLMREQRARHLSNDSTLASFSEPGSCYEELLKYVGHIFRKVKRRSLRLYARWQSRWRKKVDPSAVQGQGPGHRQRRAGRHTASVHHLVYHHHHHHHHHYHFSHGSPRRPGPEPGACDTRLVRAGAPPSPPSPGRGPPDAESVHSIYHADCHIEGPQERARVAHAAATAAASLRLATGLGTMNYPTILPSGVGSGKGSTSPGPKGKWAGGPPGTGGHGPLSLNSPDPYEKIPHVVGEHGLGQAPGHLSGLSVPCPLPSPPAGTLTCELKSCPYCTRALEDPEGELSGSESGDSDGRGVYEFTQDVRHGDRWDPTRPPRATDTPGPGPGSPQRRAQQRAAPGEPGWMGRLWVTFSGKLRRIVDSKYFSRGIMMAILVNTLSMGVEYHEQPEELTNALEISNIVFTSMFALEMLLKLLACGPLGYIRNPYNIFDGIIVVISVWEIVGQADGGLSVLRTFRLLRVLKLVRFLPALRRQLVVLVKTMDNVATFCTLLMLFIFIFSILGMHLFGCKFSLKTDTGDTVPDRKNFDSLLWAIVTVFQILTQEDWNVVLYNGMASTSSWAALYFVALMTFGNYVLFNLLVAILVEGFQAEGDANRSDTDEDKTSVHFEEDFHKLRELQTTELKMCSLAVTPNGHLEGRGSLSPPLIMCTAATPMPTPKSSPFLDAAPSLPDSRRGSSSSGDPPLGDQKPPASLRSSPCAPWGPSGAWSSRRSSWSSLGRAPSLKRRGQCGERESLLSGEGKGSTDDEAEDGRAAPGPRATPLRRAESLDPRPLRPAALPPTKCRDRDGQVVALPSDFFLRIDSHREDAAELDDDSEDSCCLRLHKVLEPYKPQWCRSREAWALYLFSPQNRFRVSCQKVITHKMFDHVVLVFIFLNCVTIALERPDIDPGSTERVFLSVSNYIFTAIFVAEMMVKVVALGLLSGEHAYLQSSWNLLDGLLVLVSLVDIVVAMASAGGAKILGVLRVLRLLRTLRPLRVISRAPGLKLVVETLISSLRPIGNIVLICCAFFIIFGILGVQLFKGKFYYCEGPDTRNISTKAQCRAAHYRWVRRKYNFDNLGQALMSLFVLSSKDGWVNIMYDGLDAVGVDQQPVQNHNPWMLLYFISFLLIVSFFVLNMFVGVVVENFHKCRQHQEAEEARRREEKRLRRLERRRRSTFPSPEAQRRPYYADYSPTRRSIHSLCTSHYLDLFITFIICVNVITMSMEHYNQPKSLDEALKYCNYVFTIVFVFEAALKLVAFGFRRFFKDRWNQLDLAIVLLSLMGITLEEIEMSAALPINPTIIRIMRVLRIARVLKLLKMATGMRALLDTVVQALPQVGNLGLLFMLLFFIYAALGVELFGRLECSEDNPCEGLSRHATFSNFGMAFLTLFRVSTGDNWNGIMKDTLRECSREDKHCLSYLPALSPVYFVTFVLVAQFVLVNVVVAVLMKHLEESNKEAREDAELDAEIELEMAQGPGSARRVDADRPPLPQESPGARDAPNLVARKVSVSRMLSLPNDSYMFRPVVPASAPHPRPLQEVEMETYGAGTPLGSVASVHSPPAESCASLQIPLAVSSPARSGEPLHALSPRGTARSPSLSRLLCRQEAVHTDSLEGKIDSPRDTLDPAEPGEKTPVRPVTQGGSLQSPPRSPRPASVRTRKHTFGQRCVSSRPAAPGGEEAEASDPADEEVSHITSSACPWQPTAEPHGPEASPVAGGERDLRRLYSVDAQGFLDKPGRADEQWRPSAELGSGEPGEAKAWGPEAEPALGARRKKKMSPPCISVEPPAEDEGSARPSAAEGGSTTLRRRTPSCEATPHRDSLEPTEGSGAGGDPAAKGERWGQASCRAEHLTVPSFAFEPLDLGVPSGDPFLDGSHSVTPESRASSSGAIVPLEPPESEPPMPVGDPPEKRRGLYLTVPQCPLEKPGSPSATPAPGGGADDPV
Chain of Cytochrome P450 2C9 (P11712 whole entry): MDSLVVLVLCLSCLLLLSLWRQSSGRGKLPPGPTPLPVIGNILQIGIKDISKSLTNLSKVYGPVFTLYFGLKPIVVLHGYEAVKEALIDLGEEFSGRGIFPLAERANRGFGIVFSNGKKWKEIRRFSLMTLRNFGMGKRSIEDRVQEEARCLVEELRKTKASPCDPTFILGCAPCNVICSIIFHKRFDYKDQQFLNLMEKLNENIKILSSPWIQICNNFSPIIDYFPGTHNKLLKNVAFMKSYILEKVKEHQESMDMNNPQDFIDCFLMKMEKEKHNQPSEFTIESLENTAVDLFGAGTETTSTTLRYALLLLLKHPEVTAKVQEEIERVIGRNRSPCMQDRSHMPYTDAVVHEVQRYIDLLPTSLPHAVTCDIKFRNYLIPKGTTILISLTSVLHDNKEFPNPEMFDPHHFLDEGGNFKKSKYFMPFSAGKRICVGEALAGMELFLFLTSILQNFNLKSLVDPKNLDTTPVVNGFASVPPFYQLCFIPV
Chain of Cytochrome P450 2D6 (P10635 whole entry): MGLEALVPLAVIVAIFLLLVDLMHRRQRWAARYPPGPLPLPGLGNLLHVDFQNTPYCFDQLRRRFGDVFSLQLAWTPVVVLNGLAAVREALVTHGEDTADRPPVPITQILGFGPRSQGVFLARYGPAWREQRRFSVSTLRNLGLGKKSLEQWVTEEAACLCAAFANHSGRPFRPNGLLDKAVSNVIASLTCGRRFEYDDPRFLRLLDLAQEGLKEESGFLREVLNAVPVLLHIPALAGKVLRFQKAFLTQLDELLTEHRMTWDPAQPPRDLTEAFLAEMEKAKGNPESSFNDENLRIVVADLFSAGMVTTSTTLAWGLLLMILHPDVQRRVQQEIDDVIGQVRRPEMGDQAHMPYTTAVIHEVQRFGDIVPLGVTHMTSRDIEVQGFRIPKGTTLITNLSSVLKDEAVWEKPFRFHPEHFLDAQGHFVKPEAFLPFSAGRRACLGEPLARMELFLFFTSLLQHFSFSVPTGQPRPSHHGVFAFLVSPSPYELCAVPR
Chain of Luciferin 4-monooxygenase (P08659 whole entry): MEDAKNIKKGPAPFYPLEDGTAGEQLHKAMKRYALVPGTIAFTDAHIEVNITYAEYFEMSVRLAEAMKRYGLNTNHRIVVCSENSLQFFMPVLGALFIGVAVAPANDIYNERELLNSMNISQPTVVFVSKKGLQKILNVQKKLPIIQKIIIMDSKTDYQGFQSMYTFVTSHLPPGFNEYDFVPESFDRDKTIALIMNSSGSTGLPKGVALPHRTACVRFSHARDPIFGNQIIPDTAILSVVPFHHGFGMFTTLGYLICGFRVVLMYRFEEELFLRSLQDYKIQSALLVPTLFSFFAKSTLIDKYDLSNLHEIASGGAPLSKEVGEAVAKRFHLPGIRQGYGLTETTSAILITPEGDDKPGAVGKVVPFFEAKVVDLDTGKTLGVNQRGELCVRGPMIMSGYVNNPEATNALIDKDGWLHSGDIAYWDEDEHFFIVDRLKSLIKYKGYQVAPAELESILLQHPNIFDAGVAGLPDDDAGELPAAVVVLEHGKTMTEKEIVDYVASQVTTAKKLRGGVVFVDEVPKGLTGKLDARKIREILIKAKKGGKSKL

SMILES: Cc1sc[n+](CC(=O)c2ccc(Br)cc2)c1C
- IC50 [1]: 8.46 µM (active)
- IC50 [2]: 3.76 µM (active)

SMILES: Cc1nn2c(NCCOCCO)c3c(nc2c1-c1ccccc1)CCCC3
- IC50 [1]: 3.43 µM (active)
- IC50 [2]: 11.2 µM (active)

SMILES: N=C(NC(=O)c1ccccc1)N1CCN(C(c2ccccc2)c2ccccc2)CC1
- CC50 [3]: > 25 µM (active)

SMILES: Cc1cccc(OCCCSc2nc3ccc(C)cc3[nH]2)c1
- IC50 [4]: 24.9 µM (not active)
- EC50 [5]: 3.92 µM (active)

SMILES: CCc1nnc(NS(=O)(=O)c2ccc(NC(=O)c3ccc(Br)cc3)cc2)s1
- IC50 [1]: 4.45 µM (active)
- IC50 [2]: 10 µM (active)

SMILES: Cc1ccc(N2CCN(C(=O)CCc3nc4ccccc4[nH]3)CC2)c(C)c1
- CC50 [6]: 13.6 µM (active)
- EC50 [5]: 3.27 µM (active)

SMILES: O=C(Nc1ccccc1C(=O)NCCCn1ccnc1)c1ccccc1
- IC50 [1]: 5.59 µM (active)
- IC50 [2]: 1.5 µM (active)

SMILES: Cc1ccc(SCCC(=O)NCCSCc2ccccc2C)cc1
- EC50 [5]: 2.87 µM (active)

SMILES: COc1cccc(NC(=O)C2CCN(Cc3cnn(-c4ccccc4)c3-n3cccc3)CC2)c1
- CC50 [7]: 14.6 µM (active)
- EC50 [5]: 2.29 µM (active)

SMILES: Cc1ccccc1NS(=O)(=O)c1cc(C(=O)Nc2ccccc2-c2ccccc2)ccc1Cl
- EC50 [5]: 3.95 µM (active)

SMILES: CN(C)c1nc(-c2ccccc2C(F)(F)F)nc2ccccc12
- AC50 [8]: inconclusive

SMILES: COc1cc(Br)cc2cc(C(=O)NCC3CCCO3)c(=O)oc12 (stereo not drawn)
- AC50 [9]: 3.55 µM (inconclusive)
- AC50 [8]: inconclusive

SMILES: Cc1nccn1CC1CCc2c(c3ccccc3n2C)C1=O (stereo not drawn)
- IC50 [1]: 1.67 µM (active)
- IC50 [2]: 1.35 µM (active)

SMILES: COc1ccccc1CN(Cc1nc(O)c2ccccc2n1)S(=O)(=O)c1ccc2ccccc2c1
- EC50 [10]: 16.7 µM (active)
- EC50 [11]: 17.4 µM (active)
- IC50 [12]: 20.5 µM (active)
- CC50 [3]: > 25 µM (active)

SMILES: CCNC(=O)c1ccc(-n2nc(C(F)(F)F)c3c2CCCC3)cc1
- EC50 [13]: 18.1 µM (active)
- EC50 [14]: 41.9 µM (active)
- EC50 [15]: > 120 µM (not active)
- AC50 [16]: 8.91 µM (inconclusive)
- AC50 [9]: 25.1 µM (inconclusive)
- AC50 [8]: inconclusive

SMILES: CN1C(=C2C(=O)OC(C)(C)OC2=O)Sc2ccccc21
- EC50 [17]: 0.122 µM (active)
- EC50 [18]: > 120 µM (not active)
- AC50 [8]: inconclusive

SMILES: COc1cc(OC)cc(C(=O)NC(=S)NNC(=O)[C@H]2C[C@@H]2c2ccccc2)c1
- EC50 [19]: 2.99 µM (active)
- CC50 [3]: 23.8 µM (active)

SMILES: CC(C)(C)n1nnnc1C(c1cccs1)N(Cc1ccc(Cl)cc1)CC1CCCO1 (stereo not drawn)
- EC50 [20]: 2.41 µM (active)
- EC50 [21]: > 60 µM (not active)
- EC50 [5]: 8.19 µM (active)

SMILES: Cn1c(=O)c(C#N)c(-c2ccc(F)cc2)c2cc(C(=O)c3cc(Cl)cc(Cl)c3O)cnc21
- IC50 [1]: 6.95 µM (active)
- IC50 [2]: 7.08 µM (active)

SMILES: CCCc1n[nH]c2c1C(C1CC=CCC1)C(C#N)=C(N)O2 (stereo not drawn)
- EC50 [10]: 33.2 µM (active)
- EC50 [11]: 139 µM (active)
- CC50 [3]: > 25 µM (active)

SMILES: COc1cc(OC)cc(C(=O)NCCCN2CCN(CCCNC(=O)c3cc(OC)cc(OC)c3)CC2)c1
- EC50 [22]: > 112 µM (not active)
- EC50 [23]: > 112 µM (not active)
- EC50 [19]: 0.188 µM (active)

SMILES: Nc1ccc2c3c(cccc13)C(=O)NC2=O
- AC50 [24]: 3.16 µM (inconclusive)
- AC50 [8]: inconclusive

SMILES: COC(=O)Cn1c(CN2CCN(c3ccc(F)cc3)CC2)nc2c1c(=O)n(C)c(=O)n2C
- IC50 [1]: 3.59 µM (active)
- IC50 [2]: 1.15 µM (active)

SMILES: CCN(CC)S(=O)(=O)c1ccc2oc(C(=O)NCc3ccc(F)cc3)c(C)c2c1
- EC50 [5]: 3.18 µM (active)
